Data on 66 molecules can be found in BindingDB's records for doi:10.1016/j.ejmech.2014.07.015 (Tianjin University, 2014).

Residues, ends and D or L forms follow the SMILES beside them.

This experiment deals with Angiotensin-converting enzyme (Homo sapiens, UniProt P12821). Put plainly: Inhibition of ACE (unknown origin).
Chain of Angiotensin-converting enzyme (P12821 whole entry): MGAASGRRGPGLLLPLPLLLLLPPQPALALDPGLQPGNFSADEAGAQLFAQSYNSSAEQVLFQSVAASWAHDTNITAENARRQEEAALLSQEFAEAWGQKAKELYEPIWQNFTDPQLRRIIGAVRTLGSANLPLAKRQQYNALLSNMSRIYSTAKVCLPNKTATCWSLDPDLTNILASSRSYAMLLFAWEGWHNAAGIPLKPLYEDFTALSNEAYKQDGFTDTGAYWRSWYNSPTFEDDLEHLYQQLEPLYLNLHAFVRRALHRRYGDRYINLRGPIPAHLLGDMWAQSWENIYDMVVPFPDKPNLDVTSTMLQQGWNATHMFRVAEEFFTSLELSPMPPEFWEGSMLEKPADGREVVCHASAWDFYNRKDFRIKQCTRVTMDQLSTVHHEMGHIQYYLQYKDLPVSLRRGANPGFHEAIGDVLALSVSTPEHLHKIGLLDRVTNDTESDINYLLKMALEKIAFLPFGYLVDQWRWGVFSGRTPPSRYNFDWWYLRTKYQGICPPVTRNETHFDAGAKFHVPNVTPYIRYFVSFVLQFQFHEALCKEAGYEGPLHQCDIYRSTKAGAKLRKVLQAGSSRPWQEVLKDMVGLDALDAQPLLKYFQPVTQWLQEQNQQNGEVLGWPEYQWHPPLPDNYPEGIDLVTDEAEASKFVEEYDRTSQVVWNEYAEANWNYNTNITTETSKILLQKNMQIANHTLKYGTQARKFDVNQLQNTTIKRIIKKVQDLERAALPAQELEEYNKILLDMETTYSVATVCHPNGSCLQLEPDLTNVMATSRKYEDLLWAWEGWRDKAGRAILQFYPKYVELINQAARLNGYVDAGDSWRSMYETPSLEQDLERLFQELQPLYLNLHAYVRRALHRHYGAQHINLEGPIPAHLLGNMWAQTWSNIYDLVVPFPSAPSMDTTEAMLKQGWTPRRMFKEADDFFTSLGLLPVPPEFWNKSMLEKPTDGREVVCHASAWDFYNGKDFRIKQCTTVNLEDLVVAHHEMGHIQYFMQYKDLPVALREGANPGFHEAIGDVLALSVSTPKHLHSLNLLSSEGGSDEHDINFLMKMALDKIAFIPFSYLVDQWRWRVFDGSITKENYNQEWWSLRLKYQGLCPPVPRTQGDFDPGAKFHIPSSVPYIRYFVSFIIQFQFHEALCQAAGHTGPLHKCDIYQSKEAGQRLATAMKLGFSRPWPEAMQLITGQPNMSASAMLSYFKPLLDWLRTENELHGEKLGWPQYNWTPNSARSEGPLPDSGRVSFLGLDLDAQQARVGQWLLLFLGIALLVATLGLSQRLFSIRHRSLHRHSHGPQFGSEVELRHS
For `CC(C)C[C@H](N)C(=O)N[C@@H](Cc1ccc(O)cc1)C(=O)O`, the IC50 – broadly, the concentration that gives 50% inhibition – came to 32.3 µM.

On to `CC[C@H](C)[C@H](N)C(=O)N[C@@H](Cc1c[nH]c2ccccc12)C(=O)O`, for which the midpoint of inhibition, the IC50, lay at 4.67 µM.

As to `N=C(N)NCCC[C@H](N)C(=O)N[C@@H](Cc1ccccc1)C(=O)O`, the IC50 is 93.3 µM.

Regarding `CC(C)[C@H](NC(=O)[C@H](C)N)C(=O)NCC(=O)N1CCC[C@H]1C(=O)O` (H-AVGP-OH), 3.09 µM corresponded to half-maximal inhibition (IC50).

On to `NC(N)=NCCC[C@H](N)C(=O)N1CCC[C@H]1C(=O)O` (H-Arg-Pro-OH), for which the IC50 came to 20.8 µM.

As to `NC(N)=NCCC[C@H](N)C(=O)N[C@@H](Cc1c[nH]c2ccccc12)C(=O)O` (H-Arg-Trp-OH), the IC50 worked out at 15.8 µM.

`NC(=O)C[C@H](N)C(=O)N[C@@H](Cc1ccccc1)C(=O)O` (H-Asn-Phe-OH) showed a concentration for half-maximal inhibition (IC50) of 46.7 µM.

Molecule `CC(C)C[C@H](NC(=O)[C@@H](N)CC(=O)O)C(=O)N1CCC[C@H]1C(=O)O` (H-Asp-Leu-Pro-OH) had an IC50 of 4.78 µM.

The molecule `CC(C)[C@H](NC(=O)[C@@H](N)Cc1ccccc1)C(=O)N[C@@H](C)C(=O)N1CCC[C@H]1C(=O)O` (H-FVAP-OH) displayed an IC50 of 10 µM.

For the molecule `C[C@H](NC(=O)[C@H](Cc1c[nH]c2ccccc12)NC(=O)CN)C(=O)N1CCC[C@H]1C(=O)O` (H-GWAP-OH), the IC50 stood at 3.89 µM.

Molecule `N=C(N)NCCC[C@H](NC(=O)CN)C(=O)N1CCC[C@H]1C(=O)O` (H-Gly-Arg-Pro-OH) showed an IC50 of 19.9 µM.

For `CC[C@H](C)[C@H](N)C(=O)N[C@@H](CCC(=O)O)C(=O)N1CCC[C@H]1C(=O)O` (H-Ile-Glu-Pro-OH), half-maximal inhibition (IC50) was put at 1.58 µM.

As to `CC[C@H](C)[C@H](N)C(=O)N[C@@H](CCCCN)C(=O)N1CCC[C@H]1C(=O)O` (H-Ile-Lys-Pro-OH), it took 6.91 µM to reach half-maximal inhibition (IC50).

In turn, `CC(C)C[C@H](N)C(=O)N[C@@H](C)C(=O)N1CCC[C@H]1C(=O)O` (H-Leu-Ala-Pro-OH) showed an IC50 of 3.46 µM.

`CC(C)C[C@H](N)C(=O)N[C@@H](CC(N)=O)C(=O)N1CCC[C@H]1C(=O)O` (H-Leu-Asn-Pro-OH) registered an IC50 of 57.5 µM.

The molecule `CC(C)C[C@H](N)C(=O)N[C@@H](CCC(=O)O)C(=O)N1CCC[C@H]1C(=O)O` (H-Leu-Glu-Pro-OH) came in with an IC50 of 1.9 µM.

Turning to `CC(C)C[C@H](N)C(=O)N[C@@H](CCCCN)C(=O)N1CCC[C@H]1C(=O)O` (H-Leu-Lys-Pro-OH), the IC50 came out at 3.98 µM.

In turn, `CC(C)C[C@H](N)C(=O)N[C@@H](CO)C(=O)N1CCC[C@H]1C(=O)O` (H-Leu-Ser-Pro-OH) registered an IC50 of 1.69 µM.

Take `CC(C)C[C@H](N)C(=O)N[C@@H](Cc1ccc(O)cc1)C(=O)N1CCC[C@H]1C(=O)O` (H-Leu-Tyr-Pro-OH): the IC50 turned out to be 6.6 µM.

In the case of `CSCC[C@H](N)C(=O)N[C@@H](CC(N)=O)C(=O)N1CCC[C@H]1C(=O)O` (H-Met-Asn-Pro-OH), half-maximal inhibition (IC50) required 66 µM.

Take `C[C@H](NC(=O)[C@@H](N)Cc1ccccc1)C(=O)N1CCC[C@H]1C(=O)O` (H-Phe-Ala-Pro-OH): the midpoint of inhibition, the IC50, lay at 3.8 µM.

In the case of `NC(=O)CC[C@H](NC(=O)[C@@H](N)Cc1ccccc1)C(=O)N1CCC[C@H]1C(=O)O` (H-Phe-Gln-Pro-OH), half-maximal inhibition (IC50) was put at 12 µM.

Turning to `N[C@@H](Cc1ccccc1)C(=O)N[C@@H](CCC(=O)O)C(=O)N1CCC[C@H]1C(=O)O` (H-Phe-Glu-Pro-OH), the IC50 was 12 µM.

In turn, `CC(C)[C@H](N)C(=O)N[C@@H](CO)C(=O)N[C@@H](CO)C(=O)N1CCC[C@H]1C(=O)O` (H-VSSP-OH) yielded an IC50 of 10 µM.

Molecule `CC(C)[C@H](N)C(=O)N[C@@H](CCCNC(=N)N)C(=O)N1CCC[C@H]1C(=O)O` (H-Val-Arg-Pro-OH) displayed an IC50 of 2.18 µM.

For `CC(C)[C@H](N)C(=O)NCC(=O)N1CCC[C@H]1C(=O)O` (H-Val-Gly-Pro-OH), inhibition was half-maximal at 26.3 µM (IC50).

`CSCC[C@H](NC(=O)[C@@H](N)C(C)C)C(=O)N1CCC[C@H]1C(=O)O` (H-Val-Met-Pro-OH) had an IC50 of 28.8 µM.

In turn, `CC(C)[C@H](N)C(=O)N[C@@H](CO)C(=O)N1CCC[C@H]1C(=O)O` (H-Val-Ser-Pro-OH) showed an IC50 of 10 µM.

`C[C@H](N)C(=O)N[C@@H](Cc1ccccc1)C(=O)O` [2-(2-Amino-propionylamino)-3-phenyl-propionic acid] had an IC50 of 75.8 µM.

For `NCC(=O)N[C@@H](Cc1c[nH]c2ccccc12)C(=O)O` [2-((S)-2-Amino-acetylamino)-3-(1H-indol-3-yl)-propionic acid] (H-Gly-Trp-OH), the midpoint of inhibition, the IC50, lay at 25.1 µM.

Take `CC[C@H](C)[C@H](N)C(=O)N[C@@H](Cc1ccc(O)cc1)C(=O)O` [(S)-2-((S)-2-Amino-3-(S)-methyl-pentanoylamino)-3-(4-hydroxy-phenyl)-propionic acid] (H-Ile-Tyr-OH): the IC50 came out at 6.16 µM.

Molecule `CC(C)[C@H](N)C(=O)N[C@@H](Cc1ccccc1)C(=O)O` [(S)-2-((S)-2-Amino-3-methyl-butyrylamino)-3-phenyl-propionic acid] (H-Val-Phe-OH) returned an IC50 of 9.12 µM.

`C[C@H](N)C(=O)N[C@@H](Cc1c[nH]c2ccccc12)C(=O)O` [(S)-2-((S)-2-Amino-propionylamino)-3-(1H-indol-3-yl)-propionic acid] (H-Ala-Trp-OH) returned an IC50 of 12 µM.

For `C[C@H](N)C(=O)N[C@@H](Cc1ccc(O)cc1)C(=O)O` [(S)-2-((S)-2-Amino-propionylamino)-3-(4-hydroxy-phenyl)-propionic acid] (H-Ala-Tyr-OH), the midpoint of inhibition, the IC50, lay at 19 µM.

`CC(C)[C@H](N)C(=O)N[C@@H](Cc1ccc(O)cc1)C(=O)O` [Ang(3-4)] (H-Val-Tyr-OH) displayed an IC50 of 15.8 µM.

For the molecule `CC(C)C[C@H](N)C(=O)N[C@@H](CCC(N)=O)C(=O)N1CCC[C@H]1C(=O)O` [CHEBI:73270] (H-Leu-Gln-Pro-OH), the IC50 came to 1.9 µM.

As to `NC(=O)C[C@H](N)C(=O)N[C@@H](Cc1ccc(O)cc1)C(=O)O` [CHEBI:73427] (H-Asn-Tyr-OH), 32.3 µM corresponded to half-maximal inhibition (IC50).

Molecule `N[C@@H](CC(=O)O)C(=O)N[C@@H](Cc1ccc(O)cc1)C(=O)O` [CHEBI:73455] (H-Asp-Tyr-OH) yielded an IC50 of 100 µM.

For the molecule `CC(C)C[C@H](N)C(=O)N[C@@H](Cc1c[nH]c2ccccc12)C(=O)O` [CHEBI:73590], the IC50 was found to be 17.3 µM.

Take `NCCCC[C@H](N)C(=O)N[C@@H](Cc1ccccc1)C(=O)O` [CHEBI:73605]: 28.1 µM corresponded to half-maximal inhibition (IC50).

In the case of `N[C@@H](Cc1ccccc1)C(=O)N[C@@H](Cc1ccc(O)cc1)C(=O)O` [CHEBI:73637] (H-Phe-Tyr-OH), the IC50 turned out to be 25.1 µM.

Molecule `N[C@@H](CO)C(=O)N[C@@H](Cc1ccc(O)cc1)C(=O)O` [CHEBI:73652] (H-Ser-Tyr-OH) gave an IC50 of 66 µM.

Regarding `N=C(N)NCCC[C@H](N)C(=O)N[C@@H](Cc1ccc(O)cc1)C(=O)O` [CHEBI:73822] (H-Arg-Tyr-OH), the IC50 came to 51.2 µM.

For the molecule `N[C@@H](Cc1c[nH]cn1)C(=O)N[C@@H](Cc1ccc(O)cc1)C(=O)O` [CHEBI:74059] (H-His-Tyr-OH), the IC50 came to 26.3 µM.

In turn, `NCCCC[C@H](N)C(=O)N1CCC[C@H]1C(=O)O` [CHEBI:74567] (H-Lys-Pro-OH) yielded an IC50 of 21.8 µM.

The molecule `CSCC[C@H](N)C(=O)N[C@@H](Cc1ccccc1)C(=O)O` [CHEBI:74708] (H-Met-Phe-OH) returned an IC50 of 44.6 µM.

As to `CSCC[C@H](N)C(=O)N[C@@H](Cc1c[nH]c2ccccc12)C(=O)O` [CHEBI:74709] (H-Met-Trp-OH), inhibition was half-maximal at 10 µM (IC50).

The molecule `C[C@@H](O)[C@H](N)C(=O)N[C@@H](Cc1ccccc1)C(=O)O` [CHEBI:74862] (H-Thr-Phe-OH) showed a 50% inhibitory concentration (IC50) of 89.1 µM.

Molecule `CC[C@H](C)[C@H](N)C(=O)N[C@@H](C)C(=O)N1CCC[C@H]1C(=O)O` [Ile-Ala-Pro] (H-Ile-Ala-Pro-OH) registered a concentration for half-maximal inhibition (IC50) of 2.69 µM.

With H-AVPYP-OH, the IC50 came out at 79.4 µM.

H-DYGLYP-OH yielded an IC50 of 61.6 µM.

In turn, H-FFVAP-OH had an IC50 of 6.02 µM.

H-IAYKP-OH: half-maximal inhibition (IC50) was put at 2.18 µM.

As to H-LAYFYP-OH, the midpoint of inhibition, the IC50, lay at 64.5 µM.

Turning to H-LHLPAP-OH, the midpoint of inhibition, the IC50, lay at 6.02 µM.

As to H-LHLPGP-OH, the IC50 was determined as 1.9 µM.

In turn, H-LHLPLP-OH gave an IC50 of 3.71 µM.

H-LHLPYP-OH: the IC50 turned out to be 2.29 µM.

With H-LHLWLP-OH, the IC50 was 8.91 µM.

H-LHLYLP-OH registered an IC50 of 19 µM.

H-RPQIPP-OH displayed an IC50 of 45.7 µM.

For H-SKVPP-OH, the IC50 came out at 74.1 µM.

H-VHLAP-OH: the IC50 was 4.46 µM.

As to H-VHLPP-OH, the midpoint of inhibition, the IC50, lay at 18.1 µM.

As to H-VLPIP-OH, inhibition was half-maximal at 30.9 µM (IC50).

Turning to H-VLPYP-OH, the midpoint of inhibition, the IC50, lay at 36.3 µM.
